Data on six molecules can be found in the NIST ThermoML archive (doi:10.1016/j.tca.2009.06.018).

Each structure is given as a SMILES string. Numbers after ± are expanded uncertainties.

For the series the following is noted: Crystal; DTA.
Take `CCCCCCCCCC(=O)O` [decanoic acid]: the Normal melting temperature worked out at 32.31 ± 0.5 °C.
Take `CCCCCCCCCCCC(=O)O` [dodecanoic acid]: the Normal melting temperature was determined as 44.92 ± 0.5 °C.
In the case of `CCCCCCCCCCCCCCCC(=O)O` [hexadecanoic acid], the Normal melting temperature turned out to be 64.07 ± 0.5 °C.
Regarding `CCCCCCCCCCCCCCCCCC(=O)O` [octadecanoic acid], the Normal melting temperature is 70.83 ± 0.5 °C.
Next, `CCCCCCCC(=O)O` [octanoic acid]: 16.48 ± 0.5 °C; `CCCCCCCCCCCCCC(=O)O` [tetradecanoic acid]: 55.73 ± 0.5 °C.
